Results: patent publication US12622909B2, “Allosteric EGFR inhibitors and methods of use thereof” (Dana-Farber Cancer Institute, Inc., priority 2019, dated 2026)
Read-outs that look alike come from different tables or passages of the source.

What was measured:
EGFR L858R/T790M = EGFR L858R/T790M (Homo sapiens, UniProt P00533, L858R/T790M); test: HTRF-based EGFR biochemical assay (L858R/T790M); settings: 100 μM ATP, enzyme 0.02 nM
Method: (§1) EGFR biochemical activity measurements were carried out using the homogeneous time-resolved fluorescence (HTRF) assay (Cisbio). Inhibitors and DMSO normalizations were first dispensed to empty black low-volume 384-well plates (Corning) with D300 digital liquid dispenser (HP). All reactions were carried out at room temperature and solutions were added to plates with a Multidrop Combi Reagent Dispenser (ThermoFisher). The reaction mixture (10 μL final volume) contained 1 μM tyrosine kinase peptide-biotin substrate and mutant EGFR in a reaction buffer (50 mM HEPES pH 7.0, 5 mM MgCl2, 1 mM MnCl2, 0.01% BSA, 2 mM TCEP, 0.1 mM NaVO4). […] Enzyme reaction solution (2× concentrations, 5 μL) was added to 384-well plates containing compounds and incubated for 30 mins. Enzyme reactions were initiated with the addition of 5 μL of ATP to a final concentration of 100 μM and reacted for 20 mins.

EGFR L858R = EGFR L858R (Homo sapiens, UniProt P00533, L858R); test: HTRF-based EGFR biochemical assay (L858R); settings: 100 μM ATP, enzyme 0.1 nM
Method: as §1, with “20 mins. Reactions were quenched with the addition of 10 μL of phospho-tyrosine antibody-Europium(III) cryptate (1-to-180 volume ratio) and Streptavidin-XL665 (46.7 nM) in EDTA-containing detection buffer, then incubated at room temperature for 1 hour, and read with a PHERAstar plate reader (excitation=337 nm, emission=620 nm and 665 nm).” for “20 mins.”

[1] = molecular target: EGFR L858R/T790M mutant Ba/F3 cells (Homo sapiens, UniProt P00533, T790M/L858R, cells depend on it); test: Ba/F3 cell proliferation (Cell Titer Glo); format: cell-based, murine; settings: 72 hours
Text: All cell lines were maintained in RPMI 1640 (Cellgro; Mediatech Inc., Herndon, CA) supplemented with 10% FBS, 100 units/mL penicillin, 100 units/mL streptomycin. The EGFR I941R mutation was introduced via site directed mutagenesis using the Quick Change Site-Directed Mutagenesis kit (Stratagene; La Jolla, CA) according to the manufacturer's instructions. All constructs were confirmed by DNA sequencing. The constructs were shuttled into the retroviral vector JP1540 using the Cre-recombination system (Agilent Technologies, Santa Clara, CA). Ba/F3 cells were then infected with retrovirus per standard protocols, as described previously (Zhou, et al, Nature 2009). Stable clones were obtained by selection in puromycin (2 μg/ml).
Growth and inhibition of growth was assessed by the Cell Titer Glo assay (Promega, Madison, WI) and was performed according to the manufacturer's instructions. The Cell Titer Glo assay is a luminescence-based method used to determine the number of viable cells based on quantitation of the ATP present, which is directly proportional to the amount of metabolically active cells present. […] All experimental points were set up in triplicates in 384-well plates and all experiments were repeated at least three times. […] The curves were fitted using a non-linear regression model with a sigmoidal dose response.

[2] = in combination with 1 μg/ml cetuximab, read-out: Cell IC50 BaF3 L858R/T790M compound + cetuximab
[3] = single agent, read-out: Cell IC50 EGFR BaF3 L858R/T790M

Sequence of EGFR L858R (P00533 25-1210 L858R): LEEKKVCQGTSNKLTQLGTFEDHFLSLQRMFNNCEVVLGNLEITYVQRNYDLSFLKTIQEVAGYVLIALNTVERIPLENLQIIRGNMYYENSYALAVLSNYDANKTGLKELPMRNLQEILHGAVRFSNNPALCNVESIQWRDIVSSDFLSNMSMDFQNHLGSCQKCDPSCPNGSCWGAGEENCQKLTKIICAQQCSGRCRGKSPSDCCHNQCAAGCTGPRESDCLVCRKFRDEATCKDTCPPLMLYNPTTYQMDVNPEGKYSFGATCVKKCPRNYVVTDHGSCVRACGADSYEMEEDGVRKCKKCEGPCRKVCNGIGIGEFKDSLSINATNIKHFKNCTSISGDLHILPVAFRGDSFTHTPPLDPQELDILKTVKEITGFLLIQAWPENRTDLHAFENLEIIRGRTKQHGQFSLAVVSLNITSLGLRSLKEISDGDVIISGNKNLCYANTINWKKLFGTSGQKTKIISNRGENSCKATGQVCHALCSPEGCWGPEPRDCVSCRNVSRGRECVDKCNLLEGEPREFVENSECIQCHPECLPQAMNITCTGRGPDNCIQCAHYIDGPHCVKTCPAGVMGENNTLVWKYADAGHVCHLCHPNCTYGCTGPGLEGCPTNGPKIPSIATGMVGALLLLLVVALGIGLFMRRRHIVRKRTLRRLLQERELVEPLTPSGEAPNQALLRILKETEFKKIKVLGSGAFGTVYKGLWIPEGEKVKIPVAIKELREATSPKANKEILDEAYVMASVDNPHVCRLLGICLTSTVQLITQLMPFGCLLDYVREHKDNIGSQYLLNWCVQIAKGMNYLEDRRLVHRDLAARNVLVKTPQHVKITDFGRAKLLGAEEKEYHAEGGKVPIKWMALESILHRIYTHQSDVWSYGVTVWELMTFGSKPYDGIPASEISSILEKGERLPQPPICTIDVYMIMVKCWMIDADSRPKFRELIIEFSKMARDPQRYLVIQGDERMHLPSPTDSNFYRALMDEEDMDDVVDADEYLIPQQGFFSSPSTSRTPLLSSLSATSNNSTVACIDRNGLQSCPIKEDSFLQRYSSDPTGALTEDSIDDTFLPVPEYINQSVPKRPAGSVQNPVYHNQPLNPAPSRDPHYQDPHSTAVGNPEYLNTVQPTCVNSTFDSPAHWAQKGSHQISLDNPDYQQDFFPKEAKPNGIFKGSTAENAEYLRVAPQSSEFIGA
Sequence of EGFR L858R/T790M (P00533 25-1210 T790M/L858R): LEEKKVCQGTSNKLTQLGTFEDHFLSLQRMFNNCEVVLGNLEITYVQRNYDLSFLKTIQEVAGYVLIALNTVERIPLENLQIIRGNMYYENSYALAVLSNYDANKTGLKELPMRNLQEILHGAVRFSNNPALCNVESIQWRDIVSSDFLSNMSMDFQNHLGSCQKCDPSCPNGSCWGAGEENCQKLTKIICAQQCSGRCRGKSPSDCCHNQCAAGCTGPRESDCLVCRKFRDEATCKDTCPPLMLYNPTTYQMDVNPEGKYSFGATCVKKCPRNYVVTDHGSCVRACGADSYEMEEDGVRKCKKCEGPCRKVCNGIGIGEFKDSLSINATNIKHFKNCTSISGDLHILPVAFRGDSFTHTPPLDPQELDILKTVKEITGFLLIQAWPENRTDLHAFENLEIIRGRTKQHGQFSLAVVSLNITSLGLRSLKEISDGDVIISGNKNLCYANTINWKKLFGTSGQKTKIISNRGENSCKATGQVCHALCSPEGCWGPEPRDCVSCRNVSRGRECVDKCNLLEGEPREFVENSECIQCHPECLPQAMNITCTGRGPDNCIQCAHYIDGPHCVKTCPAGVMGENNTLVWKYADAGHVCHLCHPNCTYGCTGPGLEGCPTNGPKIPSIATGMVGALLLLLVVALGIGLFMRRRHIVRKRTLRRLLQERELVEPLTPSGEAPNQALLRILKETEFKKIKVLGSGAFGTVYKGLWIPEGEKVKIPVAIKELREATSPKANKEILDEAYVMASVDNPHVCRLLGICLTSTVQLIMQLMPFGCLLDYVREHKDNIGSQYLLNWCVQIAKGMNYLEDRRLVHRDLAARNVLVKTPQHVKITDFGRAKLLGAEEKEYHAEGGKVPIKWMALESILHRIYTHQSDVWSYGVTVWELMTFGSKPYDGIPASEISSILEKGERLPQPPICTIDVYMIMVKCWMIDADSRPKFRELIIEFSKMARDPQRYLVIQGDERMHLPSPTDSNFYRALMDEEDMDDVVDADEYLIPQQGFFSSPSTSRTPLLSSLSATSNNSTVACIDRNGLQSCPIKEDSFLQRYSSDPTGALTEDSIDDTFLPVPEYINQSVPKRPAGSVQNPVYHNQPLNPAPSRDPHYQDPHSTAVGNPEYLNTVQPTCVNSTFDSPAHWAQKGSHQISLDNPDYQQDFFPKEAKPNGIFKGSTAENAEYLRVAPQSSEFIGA
Sequence of EGFR L858R/T790M mutant Ba/F3 cells (P00533 whole entry T790M/L858R): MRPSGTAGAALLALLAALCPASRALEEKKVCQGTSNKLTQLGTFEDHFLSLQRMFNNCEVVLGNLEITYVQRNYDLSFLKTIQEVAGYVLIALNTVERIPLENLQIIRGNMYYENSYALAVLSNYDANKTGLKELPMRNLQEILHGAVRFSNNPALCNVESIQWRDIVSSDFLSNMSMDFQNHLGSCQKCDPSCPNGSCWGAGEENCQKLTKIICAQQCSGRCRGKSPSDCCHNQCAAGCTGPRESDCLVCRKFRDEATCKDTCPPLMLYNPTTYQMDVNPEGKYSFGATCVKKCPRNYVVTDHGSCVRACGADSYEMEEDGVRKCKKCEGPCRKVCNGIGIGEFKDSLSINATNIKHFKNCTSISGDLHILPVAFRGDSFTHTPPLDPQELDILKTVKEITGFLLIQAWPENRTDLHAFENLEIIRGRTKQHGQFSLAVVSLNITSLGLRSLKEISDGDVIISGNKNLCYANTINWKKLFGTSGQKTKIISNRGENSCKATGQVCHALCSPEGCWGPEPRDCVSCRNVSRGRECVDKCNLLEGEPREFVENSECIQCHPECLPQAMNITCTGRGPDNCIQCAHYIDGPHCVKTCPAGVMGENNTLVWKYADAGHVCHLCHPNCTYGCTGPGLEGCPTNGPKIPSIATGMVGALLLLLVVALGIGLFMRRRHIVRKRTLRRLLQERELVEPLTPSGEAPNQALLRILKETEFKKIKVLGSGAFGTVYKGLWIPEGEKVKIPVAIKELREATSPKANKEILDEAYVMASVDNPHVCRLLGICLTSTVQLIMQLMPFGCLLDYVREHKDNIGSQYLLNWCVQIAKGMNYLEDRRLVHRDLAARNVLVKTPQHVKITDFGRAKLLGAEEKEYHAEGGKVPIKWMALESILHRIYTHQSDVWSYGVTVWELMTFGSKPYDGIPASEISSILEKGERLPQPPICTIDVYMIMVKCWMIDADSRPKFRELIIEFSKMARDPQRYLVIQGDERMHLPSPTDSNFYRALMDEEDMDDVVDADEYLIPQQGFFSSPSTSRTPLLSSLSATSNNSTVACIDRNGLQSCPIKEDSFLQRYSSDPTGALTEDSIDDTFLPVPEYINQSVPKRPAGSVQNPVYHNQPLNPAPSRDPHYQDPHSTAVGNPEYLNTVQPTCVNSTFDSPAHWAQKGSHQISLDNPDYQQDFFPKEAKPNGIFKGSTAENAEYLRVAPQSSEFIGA

IC50 (EGFR L858R/T790M) [nM] | IC50 (EGFR L858R) [nM] | GI50 [1, 2] [nM] | GI50 [1, 3] [nM] | SMILES
0.2 | 2 | 10 | 1350 | CN1CCN(c2ccc(-c3ccc4ncn(C(C(=O)Nc5nccs5)c5cccc(F)c5)c(=O)c4c3)cc2)CC1 (stereo not shown) [Compound 031, 2-(3-Fluorophenyl)-2-(6-(4-(4-methyl-piperazin-1-yl)phenyl)-4-oxo-quinazolin-3(4H)-yl)-N-(thiazol-2-yl)-acetamide]
3 | 7 | 110 | 2410 | CN1CCN(c2ccc(-c3ccc4c(=O)n(C(C(=O)Nc5nccs5)c5ccccc5)cc(F)c4c3)cc2)CC1 (stereo not shown) [Compound 023, 2-(4-Fluoro-6-(4-(4-methylpiperazin-1-yl)phenyl)-1-oxoisoquinolin-2(1H)-yl)-2-phenyl-N-(thiazol-2-yl)-acetamide]
17 | 35 | 2100 | 6460 | COc1cccc(F)c1C(C(=O)Nc1nccs1)n1cnc2ccc(-c3ccc(N4CCN(C)CC4)cc3)cc2c1=O (stereo not shown) [Compound 077, 2-(2-Fluoro-6-methoxyphenyl)-2-(6-(4-(4-methylpiperazin-1-yl)phenyl)-4-exoquinazolin-3(4H)-yl)-N-(thiazol-2-yl)acetamide]
1 | 7 | 4 | 800 | CN1CCC(c2ccc(-c3ccc4ncn(C(C(=O)Nc5nccs5)c5cccc(F)c5)c(=O)c4c3)cc2)CC1 (stereo not shown) [Compound 030, 2-(3-Fluorophenyl)-2-(6-(4-(1-methyl-piperidin-4-yl)phenyl)-4-oxo-quinazolin-3(4H)-yl)-N-(thiazol-2-yl)-acetamide]
0.2 | 2 | 20 | 1880 | CN1CCC(c2ccc(-c3ccc4ncn(C(C(=O)Nc5nccs5)c5ccccc5F)c(=O)c4c3)cc2)CC1 (stereo not shown) [Compound 066, 2-(2-Fluorophenyl)-2-(6-(4-(1-methylpiperidin-4-yl)phenyl)-4-oxo-quinazolin-3(4H)-yl)-N-(thiazol-2-yl)-acetamide]
9 | 191 | 76 | 1780 | CN1CCN(c2ccc(-c3ccc4ncn(C(C(=O)Nc5ccccn5)c5ccccc5)c(=O)c4c3)cc2)CC1 (stereo not shown) [Compound 039, 2-(6-(4-(4-Methylpiperazin-1-yl)-phenyl)-4-oxoquinazolin-3(4H)-yl)-2-phenyl-N-(pyridin-2-yl)acetamide]
2 | 29 | 380 | 7810 | CN1CCC(c2ccc(-c3ccc4ncn(C(C(=O)Nc5nccs5)c5cccnc5)c(=O)c4c3)cc2)CC1 (stereo not shown) [Compound 065, 2-(6-(4-(1-Methylpiperidin-4-yl)-phenyl)-4-oxoquinazolin-3(4H)-yl)-2-(pyridin-3-yl)-N-(thiazol-2-yl)-acetamide]
283 | > 1000 | 790 | 2460 | Cc1nc2ccc(-c3ccc(C4CCN(C)CC4)cc3)cc2c(=O)n1C(C(=O)Nc1nccs1)c1ccccc1 (stereo not shown) [Compound 044, 2-(2-Methyl-6-(4-(1-methylpiperidin-4-yl)phenyl)-4-oxoquinazolin-3(4H)-yl)-2-phenyl-N-(thiazol-2-yl)acetamide]
10 | > 1000 | > 10000 | > 10000 | O=C(Nc1nccs1)C(c1ccccc1)n1ncc2cc(Br)ccc2c1=O (stereo not shown) [Compound 009, 2-(6-Bromo-1-oxophthalazin-2(1H)-yl)-2-phenyl-N-(thiazol-2-yl)-acetamide]
2 | 9 | 57 | 1860 | CN1CCC(c2ccc(-c3ccc4ncn(C(C(=O)Nc5ccccn5)c5ccccc5)c(=O)c4c3)cc2)CC1 (stereo not shown) [Compound 038, 2-(6-(4-(1-Methylpiperidin-4-yl)-phenyl)-4-oxaquinazolin-3(4H)-yl)-2-phenyl-N-(pyridin-2-yl)acetamide]
0.7 | 8 | 44 | 3360 | CN1CCN(c2ccc(-c3ccc4ncn(C(C(=O)Nc5nccs5)c5ccccc5F)c(=O)c4c3F)cc2)CC1 (stereo not shown) [Compound 076, 2-(5-Fluoro-6-(4-(4-methyl-piperazin-1-yl)phenyl)-4-oxo-quinazolin-3(4H)-yl)-2-(2-fluoro-phenyl)-N-(thiazol-2-yl)acetamide]
0.6 | 2 | 20 | 1260 | CN1CCC(c2ccc(-c3ccc4c(=O)n(C(C(=O)Nc5nccs5)c5ccccc5)cc(F)c4c3)cc2)CC1 (stereo not shown) [Compound 022, 2-(4-Fluoro-6-(4-(1-methylpiperidin-4-yl)phenyl)-1-oxoisoquinolin-2(1H)-yl)-2-phenyl-N-(thiazol-2-yl)acetamide]
1 | 13 | 41 | 3960 | CN1CCN(c2ccc(-c3ccc4ncn(C(C(=O)Nc5nccs5)c5ccccc5F)c(=O)c4c3)cc2)CC1 (stereo not shown) [Compound 067, 2-(2-fluorophenyl)-2-(6-(4-(4-methylpiperazin-1-yl)phenyl)-4-oxo-quinazolin-3(4H)-yl)-N-(thiazol-2-yl)-acetamide]
7 | 21 | 88 | 1580 | CN1CCC(c2ccc(-c3ccc4c(=O)n(C(C(=O)Nc5nccs5)c5cccc(F)c5)cnc4c3)cc2)CC1 (stereo not shown) [Compound 028, 2-(3-Fluorophenyl)-2-(7-(4-(1-methyl-piperidin-4-yl)phenyl)-4-oxo-quinazolin-3(4H)-yl)-N-(thiazol-2-yl)-acetamide]
6 | 26 | 780 | 1420 | CN1CCC(c2ccc(-c3cc4ncn(C(C(=O)Nc5nccs5)c5ccccc5)c(=O)c4cc3F)cc2)CC1 (stereo not shown) [Compound 020, 2-(6-Fluoro-7-(4-(1-methylpiperidin-4-yl)phenyl)-4-oxoquinazolin-3(4H)-yl)-2-phenyl-N-(thiazol-2-yl)acetamide]

SMILES | IC50 (EGFR L858R/T790M) [nM] | IC50 (EGFR L858R) [nM] | GI50 [1, 2] [nM] | GI50 [1, 3] [nM]
CN1CCC(c2ccc(-c3ccc4cnn(C(C(=O)Nc5nccs5)c5ccccc5)c(=O)c4c3)cc2)CC1 (stereo not shown) [Compound 042, 2-(7-(4-(1-Methylpiperidin-4-yl)-phenyl)-1-oxophtharazin-2(1H)-yl)-2-phenyl-N-(thiazol-2-yl)acetamide] | 4 | 35 | 250 | 1460
CN1CCN(c2ccc(-c3ccc4ccn(C(C(=O)Nc5nccs5)c5ccccc5)c(=O)c4c3)cc2)CC1 (stereo not shown) [Compound 019, 2-(7-(4-(4-Methylpiperazin-1-yl)-phenyl)-1-oxoisoquinolin-2(1H)-yl)-2-phenyl-N-(thiazol-2-yl)acetamide] | 5 | 35 | 44 | 1850
CN1CCN(c2ccc(-c3ccc4cnn(C(C(=O)Nc5nccs5)c5ccccc5)c(=O)c4c3)cc2)CC1 (stereo not shown) [Compound 043, 2-(7-(4-(4-Methylpiperazin-1-yl)-phenyl)-1-oxophthalazin-2(1H)-yl)-2-phenyl-N-(thiazol-2-yl)acetamide] | 10 | 90 | 380 | 2160
CN1CCC(c2ccc(-c3ccc4ncn(C(C(=O)Nc5nccs5)c5ccccc5)c(=O)c4n3)cc2)CC1 (stereo not shown) [Compound 073, 2-(6-(4-(1-Methylpiperidin-4-yl)-phenyl)-4-oxopyrido[3,2-d]-pyrimidin-3(4H)-yl)-2-phenyl-N-(thiazol-2-yl)acetamide] | 0.6 | 7 | 15 | 1940
